Experimental data taken from paper PMC3814616, “BRAF inhibitors suppress apoptosis through off-target inhibition of JNK signaling” (eLife, 2013).

Key:
[1] = target: T1, HPK1 (MAP4K1) (Homo sapiens, UniProt Q92918); assay: Quantitative competitive binding assay (KINOMEscan); settings: for remaining binding at 0.05 µM: read-out: Percent control (50 nM); for remaining binding at 0.2 µM: read-out: Percent control (200 nM); for remaining binding at 1 µM: read-out: Percent control (1000 nM); for remaining binding at 10 µM: read-out: Percent control (10 μM)
T1 construct: purchased KINOMEscan (DiscoveRx), San Diego, CA

[2] = target: T2, MAP3K3 (Homo sapiens, UniProt Q99759); assay: as above; settings: for remaining binding at 0.05 µM: read-out: Percent control (50 nM); for remaining binding at 0.2 µM: read-out: Percent control (200 nM); for remaining binding at 1 µM: read-out: Percent control (1000 nM); for remaining binding at 10 µM: read-out: Percent control (10 μM)
T2 construct: purchased KINOMEscan (DiscoveRx), San Diego, CA

[3] = target: T3, MAP4K2 (Homo sapiens, UniProt Q12851); assay: as above; settings: for remaining binding at 0.05 µM: read-out: Percent control (50 nM); for remaining binding at 0.2 µM: read-out: Percent control (200 nM); for remaining binding at 1 µM: read-out: Percent control (1000 nM); for remaining binding at 10 µM: read-out: Percent control (10 μM)
T3 construct: purchased KINOMEscan (DiscoveRx), San Diego, CA
T3 sequence (Q12851 1-820): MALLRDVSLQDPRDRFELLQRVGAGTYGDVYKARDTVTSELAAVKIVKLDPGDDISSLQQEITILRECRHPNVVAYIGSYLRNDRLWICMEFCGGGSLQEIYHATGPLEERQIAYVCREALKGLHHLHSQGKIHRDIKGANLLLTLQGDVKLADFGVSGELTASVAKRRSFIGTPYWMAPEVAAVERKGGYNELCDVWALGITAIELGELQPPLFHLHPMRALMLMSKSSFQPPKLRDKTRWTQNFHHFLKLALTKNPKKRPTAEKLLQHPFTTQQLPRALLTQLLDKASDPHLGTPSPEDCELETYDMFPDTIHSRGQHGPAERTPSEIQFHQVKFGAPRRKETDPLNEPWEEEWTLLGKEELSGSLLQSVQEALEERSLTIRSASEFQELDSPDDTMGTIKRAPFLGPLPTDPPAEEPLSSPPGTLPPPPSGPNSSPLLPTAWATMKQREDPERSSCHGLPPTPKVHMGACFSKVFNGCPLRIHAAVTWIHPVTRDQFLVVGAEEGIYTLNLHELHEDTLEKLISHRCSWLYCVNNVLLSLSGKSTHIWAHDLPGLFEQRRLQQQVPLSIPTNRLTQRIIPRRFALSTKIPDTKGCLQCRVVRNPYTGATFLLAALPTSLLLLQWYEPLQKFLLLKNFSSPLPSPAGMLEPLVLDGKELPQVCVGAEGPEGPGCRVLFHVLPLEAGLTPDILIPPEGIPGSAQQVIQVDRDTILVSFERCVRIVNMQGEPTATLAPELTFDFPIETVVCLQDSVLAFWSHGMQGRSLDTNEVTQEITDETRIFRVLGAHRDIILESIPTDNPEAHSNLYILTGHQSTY

[4] = target: T4, MAP4K4 (Homo sapiens, UniProt O95819); assay: as above; settings: for remaining binding at 0.05 µM: read-out: Percent control (50 nM); for remaining binding at 0.2 µM: read-out: Percent control (200 nM); for remaining binding at 10 µM: read-out: Percent control (10 μM)
T4 construct: purchased KINOMEscan (DiscoveRx), San Diego, CA

[5] = target: T5, OSR1 (OXSR1) (Homo sapiens, UniProt O95747); assay: as above; settings: for remaining binding at 0.05 µM: read-out: Percent control (50 nM); for remaining binding at 0.2 µM: read-out: Percent control (200 nM); for remaining binding at 1 µM: read-out: Percent control (1000 nM); for remaining binding at 10 µM: read-out: Percent control (10 μM)
T5 construct: purchased KINOMEscan (DiscoveRx), San Diego, CA

[6] = target: T6, TAOK1 (Homo sapiens, UniProt Q7L7X3); assay: as above; settings: for remaining binding at 0.2 µM: read-out: Percent control (200 nM); for remaining binding at 1 µM: read-out: Percent control (1000 nM); for remaining binding at 10 µM: read-out: Percent control (10 μM)
T6 construct: purchased KINOMEscan (DiscoveRx), San Diego, CA
T6 sequence (Q7L7X3 1-1001): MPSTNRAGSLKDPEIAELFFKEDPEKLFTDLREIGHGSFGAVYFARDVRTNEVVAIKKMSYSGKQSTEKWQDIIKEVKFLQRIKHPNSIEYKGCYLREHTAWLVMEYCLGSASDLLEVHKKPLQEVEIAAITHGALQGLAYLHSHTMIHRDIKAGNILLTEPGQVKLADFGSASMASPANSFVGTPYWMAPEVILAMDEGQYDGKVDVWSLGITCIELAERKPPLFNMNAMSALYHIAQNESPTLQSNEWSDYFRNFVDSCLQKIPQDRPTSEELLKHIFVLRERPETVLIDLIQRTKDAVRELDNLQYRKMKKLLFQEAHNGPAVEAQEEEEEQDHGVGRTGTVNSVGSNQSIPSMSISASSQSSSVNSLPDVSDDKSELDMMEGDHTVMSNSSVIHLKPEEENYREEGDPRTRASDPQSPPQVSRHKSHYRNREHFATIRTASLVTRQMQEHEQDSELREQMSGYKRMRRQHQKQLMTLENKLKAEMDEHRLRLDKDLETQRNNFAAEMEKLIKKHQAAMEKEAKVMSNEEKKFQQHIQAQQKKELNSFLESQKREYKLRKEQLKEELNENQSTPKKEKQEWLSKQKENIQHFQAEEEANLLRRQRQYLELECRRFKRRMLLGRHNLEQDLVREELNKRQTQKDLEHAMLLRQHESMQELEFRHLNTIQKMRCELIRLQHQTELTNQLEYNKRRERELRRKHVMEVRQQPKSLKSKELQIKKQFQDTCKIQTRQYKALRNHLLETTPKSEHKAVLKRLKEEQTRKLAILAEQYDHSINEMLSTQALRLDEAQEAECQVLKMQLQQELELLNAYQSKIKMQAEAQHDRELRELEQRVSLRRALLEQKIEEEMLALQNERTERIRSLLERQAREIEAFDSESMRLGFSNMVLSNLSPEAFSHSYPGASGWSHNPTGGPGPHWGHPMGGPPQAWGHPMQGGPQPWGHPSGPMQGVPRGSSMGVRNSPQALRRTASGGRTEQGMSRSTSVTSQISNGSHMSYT

[7] = system: JNK and p38 isoforms; parameters: method as in Tsai et al., 2008; Bollag et al., 2010; settings: ref Tsai et al., 2008; Bollag et al., 2010; cited from earlier work
[8] = estimated Kd, averaged pointwise estimates, transformed Hill equation, read-out: Calculated estimate of IC50

T4 sequence (O95819 whole entry): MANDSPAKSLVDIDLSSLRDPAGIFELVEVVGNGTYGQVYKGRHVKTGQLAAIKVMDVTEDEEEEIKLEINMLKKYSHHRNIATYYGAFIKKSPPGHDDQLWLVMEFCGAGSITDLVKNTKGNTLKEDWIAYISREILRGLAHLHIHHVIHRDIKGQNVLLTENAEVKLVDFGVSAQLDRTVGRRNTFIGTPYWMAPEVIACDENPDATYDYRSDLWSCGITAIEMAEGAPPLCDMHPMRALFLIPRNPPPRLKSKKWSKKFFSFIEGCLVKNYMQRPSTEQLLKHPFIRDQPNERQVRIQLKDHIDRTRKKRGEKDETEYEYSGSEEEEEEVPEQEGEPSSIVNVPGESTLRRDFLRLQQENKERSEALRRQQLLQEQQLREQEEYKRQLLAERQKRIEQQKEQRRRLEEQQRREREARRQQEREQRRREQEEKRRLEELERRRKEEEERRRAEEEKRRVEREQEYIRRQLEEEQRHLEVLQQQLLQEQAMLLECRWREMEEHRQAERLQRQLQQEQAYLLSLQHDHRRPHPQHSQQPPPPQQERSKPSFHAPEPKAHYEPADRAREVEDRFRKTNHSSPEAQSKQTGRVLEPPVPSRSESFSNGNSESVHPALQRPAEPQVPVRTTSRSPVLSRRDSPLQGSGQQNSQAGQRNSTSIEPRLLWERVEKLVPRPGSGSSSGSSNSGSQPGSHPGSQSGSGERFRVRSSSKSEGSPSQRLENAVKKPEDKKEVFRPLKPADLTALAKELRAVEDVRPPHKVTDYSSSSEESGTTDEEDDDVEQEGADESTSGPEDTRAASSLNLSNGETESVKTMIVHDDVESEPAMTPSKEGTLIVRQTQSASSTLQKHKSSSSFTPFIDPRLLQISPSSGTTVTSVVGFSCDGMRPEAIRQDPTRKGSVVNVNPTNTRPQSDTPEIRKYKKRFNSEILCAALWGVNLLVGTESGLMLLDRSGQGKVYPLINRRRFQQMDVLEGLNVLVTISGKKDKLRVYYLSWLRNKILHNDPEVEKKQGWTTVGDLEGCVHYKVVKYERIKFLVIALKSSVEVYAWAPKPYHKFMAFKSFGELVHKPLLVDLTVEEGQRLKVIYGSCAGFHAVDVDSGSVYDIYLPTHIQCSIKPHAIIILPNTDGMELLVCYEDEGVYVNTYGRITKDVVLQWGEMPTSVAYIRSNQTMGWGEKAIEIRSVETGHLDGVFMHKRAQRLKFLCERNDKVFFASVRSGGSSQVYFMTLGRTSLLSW
T1 sequence (Q92918 whole entry): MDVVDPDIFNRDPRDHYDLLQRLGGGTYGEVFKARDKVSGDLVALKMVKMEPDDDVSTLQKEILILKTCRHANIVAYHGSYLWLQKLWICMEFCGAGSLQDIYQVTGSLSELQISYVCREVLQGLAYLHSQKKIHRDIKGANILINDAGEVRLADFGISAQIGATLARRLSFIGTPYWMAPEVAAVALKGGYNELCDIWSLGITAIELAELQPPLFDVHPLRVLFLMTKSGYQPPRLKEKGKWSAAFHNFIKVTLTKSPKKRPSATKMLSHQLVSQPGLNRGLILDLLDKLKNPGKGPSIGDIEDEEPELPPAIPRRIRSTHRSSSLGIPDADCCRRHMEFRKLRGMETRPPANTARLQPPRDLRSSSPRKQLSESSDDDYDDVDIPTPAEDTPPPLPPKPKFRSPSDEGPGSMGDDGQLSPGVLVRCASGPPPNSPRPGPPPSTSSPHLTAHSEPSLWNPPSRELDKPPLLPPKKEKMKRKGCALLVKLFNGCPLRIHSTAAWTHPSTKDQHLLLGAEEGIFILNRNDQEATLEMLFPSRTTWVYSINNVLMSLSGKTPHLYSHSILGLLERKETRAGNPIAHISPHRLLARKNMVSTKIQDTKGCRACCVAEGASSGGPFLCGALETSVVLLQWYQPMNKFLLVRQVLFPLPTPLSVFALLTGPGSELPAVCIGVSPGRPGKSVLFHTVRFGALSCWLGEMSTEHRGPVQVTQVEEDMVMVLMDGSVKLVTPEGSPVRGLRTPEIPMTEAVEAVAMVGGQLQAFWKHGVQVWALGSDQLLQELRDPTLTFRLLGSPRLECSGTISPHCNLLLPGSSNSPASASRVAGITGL
T5 sequence (O95747 whole entry): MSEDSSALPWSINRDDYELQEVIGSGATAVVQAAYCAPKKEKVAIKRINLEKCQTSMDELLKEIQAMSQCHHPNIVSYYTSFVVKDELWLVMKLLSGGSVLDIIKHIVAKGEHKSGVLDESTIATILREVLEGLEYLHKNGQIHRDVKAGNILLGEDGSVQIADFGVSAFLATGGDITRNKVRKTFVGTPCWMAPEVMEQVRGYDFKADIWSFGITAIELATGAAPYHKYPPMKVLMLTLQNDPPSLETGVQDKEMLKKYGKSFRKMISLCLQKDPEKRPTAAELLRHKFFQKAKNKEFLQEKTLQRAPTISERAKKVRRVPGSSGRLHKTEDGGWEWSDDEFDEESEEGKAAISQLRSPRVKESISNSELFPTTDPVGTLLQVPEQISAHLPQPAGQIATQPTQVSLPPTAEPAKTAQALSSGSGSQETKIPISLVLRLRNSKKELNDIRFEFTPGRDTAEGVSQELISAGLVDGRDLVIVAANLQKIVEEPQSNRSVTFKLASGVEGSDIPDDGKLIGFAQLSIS
T2 sequence (Q99759 whole entry): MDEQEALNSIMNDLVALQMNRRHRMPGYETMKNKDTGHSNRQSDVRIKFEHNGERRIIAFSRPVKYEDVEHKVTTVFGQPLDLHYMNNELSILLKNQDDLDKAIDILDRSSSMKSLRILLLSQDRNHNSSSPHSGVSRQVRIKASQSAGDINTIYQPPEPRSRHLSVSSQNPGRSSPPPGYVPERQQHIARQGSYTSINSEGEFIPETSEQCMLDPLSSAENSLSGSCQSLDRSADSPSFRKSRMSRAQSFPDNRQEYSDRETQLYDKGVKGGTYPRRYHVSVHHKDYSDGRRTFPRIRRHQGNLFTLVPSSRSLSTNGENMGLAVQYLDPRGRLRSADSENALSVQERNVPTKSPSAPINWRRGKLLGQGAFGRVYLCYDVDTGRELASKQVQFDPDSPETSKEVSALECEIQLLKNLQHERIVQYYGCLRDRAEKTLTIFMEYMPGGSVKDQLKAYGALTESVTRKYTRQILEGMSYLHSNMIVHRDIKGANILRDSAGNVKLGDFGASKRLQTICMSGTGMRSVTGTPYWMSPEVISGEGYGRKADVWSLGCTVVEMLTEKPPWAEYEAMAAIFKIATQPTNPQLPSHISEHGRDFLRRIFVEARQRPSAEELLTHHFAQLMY

Compound | remaining binding at 0.05 µM [1] [%] | remaining binding at 0.2 µM [1] [%] | remaining binding at 1 µM [1] [%] | remaining binding at 10 µM [1] [%] | remaining binding at 0.05 µM [2] [%] | remaining binding at 0.2 µM [2] [%] | remaining binding at 1 µM [2] [%] | remaining binding at 10 µM [2] [%] | remaining binding at 0.05 µM [3] [%] | remaining binding at 0.2 µM [3] [%] | remaining binding at 1 µM [3] [%] | remaining binding at 10 µM [3] [%] | remaining binding at 0.05 µM [4] [%] | remaining binding at 0.2 µM [4] [%] | remaining binding at 10 µM [4] [%] | remaining binding at 0.05 µM [5] [%] | remaining binding at 0.2 µM [5] [%] | remaining binding at 1 µM [5] [%] | remaining binding at 10 µM [5] [%] | remaining binding at 0.2 µM [6] [%] | further results
CCCS(=O)(=O)Nc1ccc(F)c(C(=O)c2c[nH]c3ncc(Cl)cc23)c1F [PLX4720] | 100 | 100 | 100 | 47 | 94 | 97 | 98 | 75 | 98 | 100 | 99 | 67 | 92 | 99 | 46 | 100 | 94 | 95 | 42 | 94 | remaining binding at 1 µM ([4]; read-out: Percent control (1000 nM)): 100%; IC50 [6, 8]: 7.53 µM; remaining binding at 0.05 µM ([6]; read-out: Percent control (50 nM)): 87%; remaining binding at 1 µM [6]: 89%; remaining binding at 10 µM [6]: 65%; direct inhibition of JNK and p38 isoforms [7]: not significantly inhibited
CCCS(=O)(=O)Nc1ccc(F)c(C(=O)c2c[nH]c3ncc(-c4ccc(Cl)cc4)cc23)c1F [vemurafenib] | 95 | 88 | 67 | 15 | 87 | 97 | 100 | 94 | 99 | 82 | 95 | 46 | 96 | 92 | 23 | 100 | 100 | 89 | 98 | 100 | IC50 [4, 8]: 2.84 µM; remaining binding at 1 µM [6]: 97%; remaining binding at 10 µM [6]: 79%; direct inhibition of JNK and p38 isoforms [7]: not significantly inhibited
